{
  "source": "patent US6358492B1",
  "about": "“Dopamine transporter imaging ligand” (Research Triangle Institute, priority 1997, dated 2002)",
  "key": {"[1]": {"target": "serotonin transporter (UniProt P31652)", "settings": "read-out: IC50 5-HT [3H]Paroxetine; 0.2 nM [3H]paroxetine; values taken from literature (footnotes d-h); cited from earlier work"}, "[2]": {"target": "norepinephrine transporter (UniProt Q9WTR4)", "settings": "read-out: IC50 NE [3H]Nisoxetine; 0.5 nM [3H]nisoxetine; values taken from literature (footnotes d-h); cited from earlier work"}, "[3]": {"test_system": "norepinephrine transporter", "experiment": "Inhibition of 0.5 nM [3H]nisoxetine binding to the norepinephrine transporter", "settings": "ratio of IC50 values"}, "[4]": {"test_system": "serotonin transporter", "format": "binding", "settings": "for 5-HT/DA Ratio: ratio of IC50 values"}, "[5]": {"target": "T1, dopamine transporter (UniProt P23977)", "T1 construct": "other: 0.5 nM [3H]WIN 35,428; mean ± standard error where given", "settings": "read-out: IC50 DA [3H]WIN 35,428; 0.5 nM [3H]WIN 35,428; values taken from literature (footnotes c-h); cited from earlier work"}, "[6]": {"target": "norepinephrine transporter (UniProt Q9WTR4)", "experiment": "Inhibition of 0.5 nM [3H]nisoxetine binding to the norepinephrine transporter", "settings": "read-out: IC50 NE [3H]Nisoxetine; 0.5 nM [3H]nisoxetine; mean ± standard error where given"}, "[7]": {"target": "serotonin transporter (UniProt P31652)", "format": "binding", "settings": "read-out: IC50 5-HT [3H]Paroxetine; 0.2 nM [3H]paroxetine; mean ± standard error where given"}, "[8]": {"target": "dopamine transporter (Mus musculus, UniProt Q61327)", "sequence (Q61327 whole entry)": "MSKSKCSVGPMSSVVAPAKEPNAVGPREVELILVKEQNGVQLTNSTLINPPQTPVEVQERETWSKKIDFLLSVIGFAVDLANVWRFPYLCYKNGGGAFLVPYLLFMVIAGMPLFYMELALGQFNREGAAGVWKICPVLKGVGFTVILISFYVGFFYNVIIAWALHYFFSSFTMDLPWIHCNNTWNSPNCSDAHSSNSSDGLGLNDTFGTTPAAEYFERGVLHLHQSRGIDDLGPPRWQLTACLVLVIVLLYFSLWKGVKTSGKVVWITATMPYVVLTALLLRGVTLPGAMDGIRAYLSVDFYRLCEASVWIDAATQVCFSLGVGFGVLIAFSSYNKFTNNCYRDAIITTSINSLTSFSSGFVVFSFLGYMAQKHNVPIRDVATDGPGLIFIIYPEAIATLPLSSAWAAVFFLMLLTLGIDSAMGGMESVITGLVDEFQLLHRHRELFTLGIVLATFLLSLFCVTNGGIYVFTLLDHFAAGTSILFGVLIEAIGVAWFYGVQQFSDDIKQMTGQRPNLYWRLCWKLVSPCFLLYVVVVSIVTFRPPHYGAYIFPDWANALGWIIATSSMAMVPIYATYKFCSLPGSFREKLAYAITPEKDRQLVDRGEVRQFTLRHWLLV", "experiment": "In vivo binding / regional brain distribution of radiolabeled ligand after i.v. injection in mice", "description": "Male CD mice weighting 25-35 g received 1 μCi [^3H]RTI-352 ([…], diluted in saline containing 0.5% methanol) by intravenous injection. The animals were killed at different times, and [^3H]RTI-352 concentrations in different brain regions determined as previously described (Scheffel et al., 1989; Cline et al., 1992). To evaluate the selectivity of [^3H]RTI-352 in vivo binding, blocking doses (5 mg/kg, dissolved in 0.1 ml saline) of GBR 12,909 (DAT blocker), desipramine (NET blocker), or paroxetine (5-HTT blocker) were injected intravenously 5 minutes before [^3H]RTI-352 tracer injection. The animals were killed 30 minutes later and [^3H]RTI-352 concentrations determined in the various brain tissues.\nThe percent dose per gram tissue peaked rapidly in all regions of the brain and was maintained for a slightly longer time in the striatum compared to other tissues that lack DAT. The tissue to cerebellar ratios reflected this fact in that striatal to cerebellar ratios were relatively high at early times but low at later times (FIG. 1)."}, "[9]": {"target": "T1, dopamine transporter", "format": "binding", "settings": "read-out: IC50 DA [3H]WIN 35,428; 0.5 nM [3H]WIN 35,428; mean ± standard error where given"}},
  "note": "Structures can show the parent of a compound that is named as a salt. Where two headings read alike, the source gives them in different places.",
  "data": [
    {"smiles": "COC(=O)C1C(c2ccc(F)cc2)CC2CCC1N2C", "note": "(stereo not shown) [1a]", "values": [
      {"measurement": "IC50", "setting": "[1]", "result": "0.81 ± 0.059", "unit": "µM"},
      {"measurement": "IC50", "setting": "[2]", "result": "0.835 ± 0.045", "unit": "µM"}
    ]},
    {"smiles": "COC(=O)C1C(c2ccc(I)cc2)CC2CCC1N2C", "note": "(stereo not shown) [1b, reference compound]", "values": [
      {"measurement": "IC50", "setting": "[1]", "result": "0.00421 ± 0.0003", "unit": "µM"},
      {"measurement": "NE/DA Ratio", "setting": "[3]", "result": 29},
      {"measurement": "5-HT/DA Ratio", "setting": "[4]", "result": 3.3}
    ]},
    {"smiles": "COC(=O)C1C(c2ccc(Cl)cc2)CC2CCC1N2C", "note": "(stereo not shown) [1c]", "values": [
      {"measurement": "IC50", "setting": "[1]", "result": "0.0445 ± 0.0013", "unit": "µM"}
    ]},
    {"smiles": "COC(=O)C1C(c2ccccc2)CC2CCC1N2C", "note": "(stereo not shown) [1e]", "values": [
      {"measurement": "IC50", "setting": "[5]", "result": "0.023 ± 0.005", "unit": "µM"},
      {"measurement": "IC50", "setting": "[2]", "result": "0.92 ± 0.073", "unit": "µM"}
    ]},
    {"smiles": "COC(=O)[C@@H]1[C@H]2CC[C@@H](C[C@H]1c1ccc(F)cc1)N2C", "note": "[2a, 3α-(4-Fluorophenyl)tropane-2β-carboxylic acid methyl ester]", "values": [
      {"measurement": "IC50", "setting": "[6]", "result": 1.23, "unit": "µM"},
      {"measurement": "IC50", "setting": "[7]", "result": 5.06, "unit": "µM"}
    ]},
    {"smiles": "COC(=O)[C@@H]1[C@H]2CC[C@@H](C[C@H]1c1ccc(I)cc1)N2C.Cc1ccc(S(=O)(=O)O)cc1", "note": "[2b, 3α-(4-Iodophenyl)tropane-2β-carboxylic acid methyl ester tosylate]", "values": [
      {"measurement": "time at which striatal-to-cerebellar ratio peaked", "setting": "[8]; mouse brain, i.v. tracer", "result": "about 30 min"},
      {"measurement": "time the peak striatal-to-cerebellar ratio was maintained thereafter", "setting": "[8]; mouse brain, i.v. tracer", "result": "about 20 min"},
      {"measurement": "NE/DA Ratio", "setting": "[3]", "result": 18},
      {"measurement": "IC50", "setting": "[6]", "result": "0.0524 ± 0.0049", "unit": "µM"},
      {"measurement": "5-HT/DA Ratio", "setting": "[4]", "result": 23},
      {"measurement": "times more selective for the DAT relative to the 5-HT transporter", "setting": "[4]; relative to 1b (RTI-55)", "result": 7, "unit": "times"},
      {"measurement": "IC50", "setting": "[7]", "result": "0.0649 ± 0.00197", "unit": "µM"},
      {"measurement": "IC50", "setting": "[9]", "result": "0.00285 ± 0.00016", "unit": "µM"}
    ]},
    {"smiles": "COC(=O)[C@@H]1[C@H]2CC[C@@H](C[C@H]1c1ccc(Cl)cc1)N2C", "note": "[2c, 3α-(4-Chlorophenyl)tropane-2β-carboxylic acid methyl ester tosylate]", "values": [
      {"measurement": "IC50", "setting": "[7]", "result": "0.998 ± 0.12", "unit": "µM"},
      {"measurement": "IC50", "setting": "[9]", "result": "0.0024 ± 0.0002", "unit": "µM"}
    ]},
    {"smiles": "COC(=O)[C@@H]1[C@H]2CC[C@@H](C[C@H]1c1ccc(C)cc1)N2C", "note": "[2d, 3α-(4-Methylphenyl)tropane-2β-carboxylic acid methyl ester tosylate]", "values": [
      {"measurement": "IC50", "setting": "[6]", "result": "0.275 ± 0.024", "unit": "µM"},
      {"measurement": "IC50", "setting": "[9]", "result": "0.0102 ± 0.0008", "unit": "µM"}
    ]},
    {"smiles": "COC(=O)C1C(c2ccccc2)CC2CCC1N2C", "note": "(stereo not shown) [2e]", "values": [
      {"measurement": "IC50", "setting": "[6]", "result": 2.08, "unit": "µM"},
      {"measurement": "IC50", "setting": "[9]", "result": "0.101 ± 0.016", "unit": "µM"}
    ]},
    {"smiles": "[3H]C([3H])([3H])N1[C@H]2CC[C@@H]1[C@@H](C(=O)OC)[C@H](c1ccc(I)cc1)C2", "note": "[[^3H]RTI-352]", "values": [
      {"measurement": "hypothalamus/cerebellum ratio", "setting": "[8]; mouse brain, i.v. 1 μCi tracer, little enrichment at any time", "result": 1.4},
      {"measurement": "efflux from brain", "setting": "[8]; mouse, i.v. injection", "result": "relatively rapid"},
      {"measurement": "penetration into brain", "setting": "[8]; mouse, i.v. injection", "result": "very rapid"}
    ]},
    {"smiles": "COC(=O)[C@H]1[C@@H](c2ccc([125I])cc2)C[C@@H]2CC[C@H]1N2C", "note": "[[^125I]RTI-55, reference compound]", "values": [
      {"measurement": "approach to equilibrium of striatal to cerebellar ratios", "setting": "[8]; mouse, parallel in vivo labeling experiments", "result": "steadily increasing at 120 min"}
    ]}
  ]
}
